For experiment [1], the system named is HCV replicon I389luc-ubi-neo/NS3-3′/ET in ET (Huh-lucubineo-ET) cells. Kind of experiment: Replicon assay (Biological Example 2), luciferase readout. Type of experiment: cell-based. To be noted: Hepatitis C virus. The essentials:
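EC50 values come from Hill fits of % inhibition of replicon-driven firefly luciferase, relative to no-compound wells. Compounds were serially diluted (10 points, 3-fold, 0.1 nM–50 μM final, 0.5% DMSO) onto ET replicon cells and read after 48 h.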
On the technique in general: A replicon is a self-replicating genome or part of one, used to study replication in cells.

The target of the next experiment is T1, HCV polymerase (Hepatitis C virus genotype 1b, UniProt Q9WMX2).
T1 construct: (His)6 (C); made in house; host or cells: XL-1 cells (E. coli, by own knowledge)
Nature of the experiment: Polymerase assay of Biological Example 1 (IC50 values of Table 3). Type of experiment: biochemical. To be noted: IC50 values of Table 3, polymerase assay of Biological Example 1; read-out: NS5B-enzyme3.

Setting [2] is: ET cells, luciferase activity 48 hours after compound.

SMILES strings stand for the structures.

With `C[C@@H]1CC[C@H](C)N1c1ccc(S(=O)(=O)N2CC(=O)N(c3cc(-c4ccccc4)sc3C(=O)O)[C@H](C3CCCCC3)C2)cn1` [Compound 164, 3-{(R)-2-Cyclohexyl-4-[6-((2S,5R)-2,5-dimethyl-pyrrolidin-1-yl)-pyridine-3-sulfonyl]-6-oxo-piperazin-1-yl}-5-phenyl-thiophene-2-carboxylic acid], the IC50 in experiment [1] (setting [2]) is no more than 100 nM; at HCV polymerase, 1 nM.
On the same counts, the results for `CCN1CCN(c2ccc(S(=O)(=O)N3CC(=O)N(c4cc(-c5ccccc5)sc4C(=O)O)[C@H](C4CCCCC4)C3)cn2)CC1` [Compound 148, 3-{(R)-2-Cyclohexyl-4-[6-(4-ethyl-piperazin-1-yl)-pyridine-3-sulfonyl]-6-oxo-piperazin-1-yl}-5-phenyl-thiophene-2-carboxylic acid] are no more than 100 nM and 2 nM.
For `Cc1ccc(-c2cc(N3C(=O)CN(S(=O)(=O)c4cnc(C)c(C)c4)C[C@H]3C3CCCCC3)c(C(=O)O)s2)cc1` [Compound 305, 3-[(R)-2-Cyclohexyl-4-(5,6-dimethyl-pyridine-3-sulfonyl)-6-oxo-piperazin-1-yl]-5-p-tolyl-thiophene-2-carboxylic acid] the same measures were no more than 100 nM and 4 nM.
Turning to `C[C@@H]1CN(c2ccc(S(=O)(=O)N3CC(=O)N(c4cc(-c5ccccc5)sc4C(=O)O)[C@H](C4CCCCC4)C3)cn2)CCN1C(=O)OC(C)(C)C` [Compound 151, (R)-4-{5-[(R)-4-(2-Carboxy-5-phenyl-thiophen-3-yl)-3-cyclohexyl-5-oxo-piperazine-1-sulfonyl]-pyridin-2-yl}-2-methyl-piperazine-1-carboxylic acid tert-butyl ester], the IC50 in experiment [1] (setting [2]) is no more than 100 nM; at HCV polymerase, 3 nM.
Consider `CN(C)c1ccc(-c2ccc(S(=O)(=O)N3CC(=O)N(c4cc(-c5ccccc5)sc4C(=O)O)[C@H](C4CCCCC4)C3)cn2)cc1` [Compound 203, 3-{(R)-2-Cyclohexyl-4-[6-(4-dimethylamino-phenyl)-pyridine-3-sulfonyl]-6-oxo-piperazin-1-yl}-5-phenyl-thiophene-2-carboxylic acid], for which the IC50 in experiment [1] (setting [2]) was no more than 100 nM; at HCV polymerase, 1 nM.
For `C[C@@H]1CN(c2ccc(S(=O)(=O)N3CC(=O)N(c4cc(-c5ccc(F)cc5)sc4C(=O)O)[C@H](C4CCCCC4)C3)cn2)C[C@H](C)O1` [Compound 278, 3-{(R)-2-Cyclohexyl-4-[6-((2R,6S)-2,6-dimethyl-morpholin-4-yl)-pyridine-3-sulfonyl]-6-oxo-piperazin-1-yl}-5-(4-fluoro-phenyl)-thiophene-2-carboxylic acid] the same measures were no more than 100 nM and 1 nM.
For the compound `O=C(O)c1sc(-c2ccccc2)cc1N1C(=O)CN(S(=O)(=O)c2ccc(N3CCN[C@H](CO)C3)nc2)C[C@H]1C1CCCCC1` [Compound 139, 3-{(R)-2-Cyclohexyl-4-[6-((S)-3-hydroxymethyl-piperazin-1-yl)-pyridine-3-sulfonyl]-6-oxo-piperazin-1-yl}-5-phenyl-thiophene-2-carboxylic acid], the IC50 in experiment [1] (between 100 nM and 5.0 uM) is 100 to 5000 nM; on HCV polymerase, 1 nM.
On the same counts, the results for `CC(C)(C)C#Cc1cc(N2C(=O)CN(S(=O)(=O)c3c(Cl)cccc3Cl)C[C@H]2C2CCCCC2)c(C(=O)O)s1` [Compound 282, 3-[(R)-2-Cyclohexyl-4-(2,6-dichloro-benzenesulfonyl)-6-oxo-piperazin-1-yl]-5-(3,3-dimethyl-but-1-ynyl)-thiophene-2-carboxylic acid] are 100 to 5000 nM and 31 nM.
Take `Cn1ccc(S(=O)(=O)N2CC(=O)N(c3cc(C#CC(C)(C)C)sc3C(=O)O)[C@H](C3CCCCC3)C2)n1` [Compound 193, 3-[(R)-2-Cyclohexyl-4-(1-methyl-1H-pyrazole-3-sulfonyl)-6-oxo-piperazin-1-yl]-5-(3,3-dimethyl-but-1-ynyl)-thiophene-2-carboxylic acid]: the IC50 was no more than 100 nM in experiment [1] (setting [2]) and 1 nM on HCV polymerase.
On to `COc1ccc(S(=O)(=O)N2CC(=O)N(c3cc(-c4ccccc4)sc3C(=O)O)C(C3CCCCC3)C2)cc1C(=O)O` (centres unmarked) [Compound 29, 3-[4-(3-Carboxy-4-methoxy-benzenesulfonyl)-2-cyclohexyl-6-oxo-piperazin-1-yl]-5-phenyl-thiophene-2-carboxylic acid], for which the IC50 in experiment [1] (between 100 nM and 5.0 uM) is 100 to 5000 nM; at HCV polymerase, 1 nM.
In the case of `Cc1ccc(-c2cc(N3C(=O)CN(S(=O)(=O)c4ccc(C(C)(C)C)nc4)C[C@H]3C3CCCCC3)c(C(=O)O)s2)cc1` [Compound 303, 3-[(R)-4-(6-tert-Butyl-pyridine-3-sulfonyl)-2-cyclohexyl-6-oxo-piperazin-1-yl]-5-p-tolyl-thiophene-2-carboxylic acid], the IC50 in experiment [1] (setting [2]) was no more than 100 nM; on HCV polymerase, 4 nM.
`O=C(O)c1sc(-c2ccccc2)cc1N1C(=O)CN(S(=O)(=O)c2ccc(NC3CCOCC3)nc2)C[C@H]1C1CCCCC1` [Compound 194, 3-{(R)-2-Cyclohexyl-6-oxo-4-[6-(tetrahydro-pyran-4-ylamino)-pyridine-3-sulfonyl]-piperazin-1-yl}-5-phenyl-thiophene-2-carboxylic acid]: the IC50 is no more than 100 nM in experiment [1] (setting [2]) and 2 nM on HCV polymerase.
Consider `O=C(O)c1sc(-c2ccccc2)cc1N1C(=O)CN(S(=O)(=O)c2ccccc2F)CC1C1CCCCC1` (centres unmarked) [Compound 40, 3-[2-Cyclohexyl-4-(2-fluoro-benzenesulfonyl)-6-oxo-piperazin-1-yl]-5-phenyl-thiophene-2-carboxylic acid], for which the IC50 in experiment [1] (between 100 nM and 5.0 uM) was 100 to 5000 nM; at HCV polymerase, 13 nM.
